Experimental data from patent US20230045151A1, “COMPOSITIONS AND METHODS” (MONASH UNIVERSITY, priority 2020, published 2023).
Where a name gives a salt, the structure may show the parent alone.

Experiments:
[1] = tested on: C57BL6/J mice exposed intranasally to house dust mite extract (HDM); experiment: HDM animal model of allergic airway inflammation; assay type: in vivo, mouse
Method: Mice received water as a control or L-tyrosine (reagent grade, ≥98% Sigma-Aldrich, St. Louis, Mo.) resuspended in drinking water under sterile conditions at the concentration of 100 mg/kg/day or 500 mg/kg/day (based on the assumption of a mouse consuming 4 ml of water daily). All mice received the treatment 2 weeks prior and throughout the experiment. […] Control mice received 200 μl of saline. […]. For experiments employing antibiotic treatment, 3-week old mice were treated with a combination enrofloxacin (10 mg/kg/day) and amoxicillin with clavulanic acid (1 mg/kg/day) for one week, followed by one week of only amoxicillin with clavulanic acid (1 mg/kg/day). Then, mice were then put on L-tyrosine diet in drinking water for two weeks followed by HDM exposure as before. During this time, mice were maintained on antibiotic treatment with amoxicillin/clavulanic acid until end of experiment.
Mice were anaesthetised by the inhalation of 4% isoflurane in oxygen for 3-5 minutes. 20 μg of protein content of crude house dust mite extract (HDM) (Greer Laboratories Inc., Lenoir, N.C.) in 20 μl of sterile phosphate-buffered saline (PBS) (Gibco™) was applied intranasally on days 0, 11, 12 and 13. Mice were humanely sacrificed with the lethal dose of pentobarbital (Streuli Pharma AG, Uznach, Switzerland) on day 14.
Bronchoalveolar lavage fluid (BALF) was collected by flushing airways with 0.5 ml PBS supplemented with 0.2% bovine serum albumin (Sigma-Aldrich, St. Louis, Mo.). Total cell number was determined with Coulter Counter (IG Instrumenten-Gesellschaft AG, Basel, Switzerland) while differential cell staining performed on cytospins stained with Diff-Quik solution (Dade Behring, Siemens Healthcare Diagnostics, Deerfield, Ill.). Percentages of neutrophils, macrophages, lymphocytes and eosinophils were assessed by counting 200 cells per sample.
Concentrations of interleukin-4, -5, -13, -17 and IFN-γ in culture supernatants were analysed with mouse Ready-Set-Go!™ ELISA kits (eBioscience™, San Diego, Calif.) according to manufacturer's instructions. To measure the levels of HDM-specific IgG1 and IgE in plasma, half area 96-well plates (Corning) were coated with HDM (10 μg in PBS) overnight at 4° C., followed by the incubation of samples for 2 hours at RT, and the addition of alkaline-phophatase-conjugated goat anti-mouse IgE or IgG1 (both from SouthernBiotech, Birmingham, Ala.; diluted at 1 μg ml-1 in PBS 0.2% BSA) for 2 hours at RT. 4-nitrophenyl phosphate sodium salt hexahydrate (pNPP) (Sigma) was used as a substrate, and the colorimetric reaction was read at 405 nm on the Synergy H1 microplate reader (Biotek, Luzern, Switzerland). To measure the levels of total IgA and IgM as well as hen egg lysozyme (HEL)-specific IgA and IgM in mouse faeces, faecal pellets were homogenized in 0.8 ml cold PBS, centrifuged at 400 g for 5 minutes to remove large debris, filtered through 40 μm cell strainer and centrifuged at 8000 g for 10 minutes to pellet bacteria. The supernatant was collected and loaded for 2 hours at RT on 96-well half area plates coated a day before at 4° C. with anti-IgA (Southern Biotech; 2 μg ml-1), anti-IgM (SouthernBiotech; 2 μg ml-1) or HEL protein (Sigma-Aldrich; 10 μg/ml). This step was followed by the addition of alkalinephophatase-conjugated goat anti-mouse IgA or IgM (both at 1 μg ml-1 in PBS 0.2% BSA) for 2 hours at RT. 4-nitrophenyl phosphate sodium salt hexahydrate (pNPP) (Sigma) was used as a substrate, and the colorimetric reaction was read at 405 nm as before.
Mediastinal lymph nodes were filtered through a 40 μm cell strainer, washed with PBS supplemented with 1% fetal bovine serum and 2 mM EDTA (Invitrogen) (MACS buffer). Lungs were finely cut with scissors, digested with Collagenase IV (Gibco™) in Iscove's modified Dulbecco's medium (IMDM, Gibco™) for 50 min at 37° C. and processed as the lymph nodes.

[2] = tested on: epithelial cells, dendritic cells, macrophages and bone marrow precursors; experiment: Effect of PCS on cells (deleteriousness); assay type: cell-based
[3] = mouse, in vivo
Method: Concentrations of cystatin, clusterin, lipocalin-2 and osteopontin in serum of vehicle or PCStreated mice were determined with MILLIPLEX MAP Mouse Kidney Injury Magnetic Bead Panel 2—Toxicity Multiplex Assay (Merck) according to manufacturer's instructions.

[4] = tested on: mice exposed intranasally to ovalbumin/LPS; experiment: OVA/LPS animal model of pulmonary type 1 inflammation; assay type: in vivo, mouse; details: PCS intravenous on day -1 and day 11
Method: Results are from one experiment (n=4 per group, p=0.0335). All data are presented as mean values+/−SEM. *p≤0.05. Statistical significance was evaluated with Mann-Whitney test.
Mice were anaesthetized by the inhalation of 4% isoflurane in oxygen for 3-5 min. 100 μg Ovalbumin (Invivogen, cat nr vac-pova) was mixed with 10 μg LPS from E. coli (Sigma-Aldrich, cat nr L4391) and administered intranasally per mouse on days 0, 11, 12 and 13. Mice were sacrificed with the lethal dose of pentobarbital on day 14.

[5] = mice with normal renal function, cited from earlier work
CCL20 = experiment: In vitro stimulation of lung cells enriched for airway epithelial cells, chemokine release; assay type: cell-based, mouse; details: 24 hours; for CCL20 production by lung cells stimulated with LPS: EGF 100 ng/ml, amphiregulin 500 ng/ml or gefitinib 0.16 μM, lower efficacy than PCS
Method: Mice were euthanized by CO2 inhalation, instilled with a 1.5 ml dispase II (Sigma-Aldrich) intratracheally, followed by intratracheal injection of 0.5 ml 1% low melting point agarose (Sigma-Aldrich). Lungs were then covered with ice for 3 min, removed and placed in a 15 ml falcon tube with 2 ml of dispase II, and incubated for 45 min with gentle agitation. This was followed by mechanical disruption of the lung lobes using forceps in DMEM supplemented with DNAse I (Sigma-Aldrich, 1U/ml), filtration through 70- and 40-μM cell strainers (Falcon®, Corning) and lysis of erythrocytes using red blood cell lysing buffer (BD Biosciences). Lung cells were plated in a flat-bottom 24-well or 96-well plates (Costar) coated with fibronectin (Sigma-Aldrich, 10 μg/ml) at the density of 1 mln or 0.2 mln cells/well, respectively.
5% CO2, after which the supernatant was collected and stored at −20° C. until further use.

[6] = PCS intravenous 40 mg/kg, lymph node cells restimulated with HDM for 4 days
[7] = lung cells from naive mice, HDM 100 μg/ml, PCS 100 μg/ml

| Compound | FoxP3+ Tregs in the lungs ([1]; PCS intravenous 40 mg/kg) | numbers of lung CD4+ T cells ([1]; PCS intravenous 40 mg/kg) | recruitment of neutrophils ([1]; PCS intravenous 40 mg/kg) | infiltration of DCs into the lungs ([1]; PCS intravenous 40 mg/kg, vs saline) | production of IL-5 by restimulated mediastinal lymph nodes [1, 6] | production of IL-13 by restimulated mediastinal lymph nodes [1, 6] | eosinophilia in the BALF ([1]; PCS intravenous (retro-orbital) 40 mg/kg on day -1 and day 11, vs saline, HDM days 0, 11, 12, 13) | deleterious effect on epithelial cells, dendritic cells, macrophages and bone marrow precursors [2] | elevation of major kidney toxicity markers [3] | infiltration of CD4+ T cells to the airways ([4]; ovalbumin/LPS) | infiltration of CD8+ T cells to the airways ([4]; ovalbumin/LPS) | infiltration of neutrophils to the airways ([4]; ovalbumin/LPS intranasal days 0, 11, 12, 13) | time to clearance from the blood ([5]; intraperitoneal or oral PCS) [h] | accumulation on chronic administration ([5]; twice a day for 4 weeks) | HDM-induced production of CCL20 (CCL20; [7]) | HDM-induced secretion of other chemokines (CCL20; [7]) | LPS-induced CCL20 (CCL20; lung cells from naive mice, LPS 10 μg/ml, PCS 100 μg/ml) | CCL20 production by lung cells stimulated with LPS (CCL20; LPS 10 μg/ml) |
| --- | --- | --- | --- | --- | --- | --- | --- | --- | --- | --- | --- | --- | --- | --- | --- | --- | --- | --- |
| Cc1ccc(OS(=O)(=O)O)cc1 [PCS, p-cresol sulfate] | no major alterations | no major alterations | reduced | decreased | reduced | reduced | ameliorated | not deleterious | not detected | inhibited | inhibited | inhibited | ≤ 4 | does not lead to its accumulation | completely abrogated | did not have an effect | inhibited |  |
| EGF: high affinity EGFR ligand, Epidermal Growth Factor |  |  |  |  |  |  |  |  |  |  |  |  |  |  |  |  |  | selective reduction |
| COc1cc2ncnc(Nc3ccc(F)c(Cl)c3)c2cc1OCCCN1CCOCC1 [gefitinib, reference compound] |  |  |  |  |  |  |  |  |  |  |  |  |  |  |  |  |  | selective reduction |
